PMC4210147, “Sequence-Specific Dimerization of a Transmembrane Helix in Amphipol A8-35” (PLoS ONE, 2014)
“Also recorded” adds a separate entry of the source. No end group written: not given here.

Assays:
[1] = octylglucoside with A8-35 and other amphipols; ref [13]; cited from earlier work
[2] = Isothermal titration calorimetry, SDS demicellization in presence of A8-35; assay type: physicochemical; settings: 25°C, 10 mM phosphate, 150 mM NaCl, pH 7.4
Method: ITC experiments were performed on a VP-ITC (GE Healthcare) at 25°C in 10 mM phosphate buffer (150 mM NaCl, pH 7.4). For demicellization experiments, 5-µL aliquots containing both, SDS at a concentration well above its CMC (10-13 mM) as well as A8-35 at concentrations of 5-140 µM, were injected into the sample cell containing the same amphipol concentration but no SDS. Time spans between injections were chosen long enough to allow for complete re-equilibration. Baseline subtraction and peak integration were accomplished using NITPIC [32], and the resulting isotherms were analyzed by nonlinear least-squares fitting in a spreadsheet program.
Thermal denaturation of MPs often leads to irreversible aggregation of the MP, and guanidine hydrochloride and urea, which are frequently used in unfolding studies involving soluble proteins, do typically not denature the TM regions of MPs. This is why the thermodynamic stability of integral MPs within membrane-mimetic systems is often assessed by titrating increasing concentrations of the anionic detergent SDS to MPs dissolved in a mild detergent, such as DDM [24], [40]-[44]. […] At low APol concentrations, the isotherms thus obtained resembled those measured in SDS demicellization experiments in the absence of APol. […]
Figure 5 Interactions of SDS with A8-35 monitored by isothermal titration calorimetry. […]

[3] = target: the molecule itself; test: FRET or BRET; energy transfer at different acceptor mole ratios at constant total peptide concentration, in 5 µM and 50 µM A8-35
[4] = target: the molecule itself; test: FRET or BRET; steady-state FRET at 0.5 µM peptide and 20 µM A8-35 (40:1) with increasing SDS added to preformed APol/GpA complexes; 25°C after incubation at 37°C; apparent constants; dimer to monomers
[5] = target: the molecule itself; test: FRET or BRET; steady-state FRET of FL- and TAMRA-labelled peptide (0.25 µM each, 0.5 µM total) in Amphipol A8-35 at 5 to 75 µM; 10 mM HEPES pH 7.4, 150 mM NaCl; 25°C; apparent constants; dimer to monomers

Molecule: CCCCCCCCO[C@@H]1O[C@H](CO)[C@@H](O)[C@H](O)[C@H]1O [octylglucoside]
- mixing behavior with amphipols [1]: nearly ideal mixing behavior

Molecule: CCCCCCCCCCCCOS(=O)(=O)[O-].[Na+] [SDS, sodium dodecyl sulfate]
- mixing behavior of SDS with A8-35 ([2]; qualitative): follows a more complex pattern; also recorded: strongly non-ideal
- nonideality parameters of SDS/A8-35 mixing ([2]; regular mixing model, intermediate SDS contents, A8-35 5-140 µM): 3–4 RT

B1: GpA TM domain peptide (residues 69–101 of human glycophorin A) (peptide)
peptide: SEPEITLIIFGVMAGVIGTILLISYGIRRLIKK
modifications: also: N-terminal label: fluorescein or TAMRA
notes: glycophorin A, human, transmembrane domain, residues 69-101; Self-association is measured by FRET between the FL-labelled and the TAMRA-labelled copy of the same peptide, mixed in equal concentrations (0.25 µM each); both are written as one molecule; also called GpA TM peptide; GpA TM helix; source: synthetic peptide (custom-synthesized, Peptide Specialty Laboratories, Heidelberg)
- stoichiometry N [3]: 2
- fold increase of KD (SDS exceeding 1.5 mM against no SDS) [4]: ~10 fold
- Kd [5]: < 300 nM
